Data set [1] relates to MCF7. The data set is described as follows: Cytotoxicity against human MCF7 cells assessed as reduction in cell growth incubated for 96 hrs by MTT assay. In kind it is functional, cell-based. To be noted: MCF7, 96 h. For orientation: Formazan colour is commonly taken as a measure of viable cells.
Data set [2] has as its system MDA-MB-231. The data set can be described thus: Cytotoxicity against human MDA-MB-231 cells assessed as reduction in cell viability incubated for 24 hrs by MTT assay. Format: functional, cell-based. To be noted: MDA-MB-231, 24 h.
A further data set deals with MDA-MB-468. The data set can be described thus: Cytotoxicity against human MDA-MB-468 cells assessed as cell viability measured after 3 days by Cell Titer Blue assay. In kind it is functional, cell-based. To be noted: MDA-MB-468, 72 h. For orientation: Alamar Blue is a resazurin reagent that responds to reducing activity.
For the next data set, the system named is SK-BR-3. The data set can be described thus: Cytotoxicity against human SK-BR-3 cells assessed as cell growth inhibition incubated for 48 hrs by WST-1 assay. Format: functional, cell-based. To be noted: SK-BR-3, 48 h.
The next data set concerns T47D. The data set can be described thus: Cytotoxicity against human T47D cells assessed as reduction in cell viability after 48 hrs by MTT assay. Format: functional, cell-based.
Data set [3] can be described thus: Cytotoxicity in human MCF-10A cells assessed as reduction in cell viability incubated for 72 hrs by MTT assay. In kind it is toxicity, cell-based.
The test system of data set [4] is SNB-19. The data set can be described thus: Antiproliferative activity against human SNB-19 cells assessed as reduction in cell proliferation incubated for 72 hrs by WST-1 assay. To be noted: SNB-19, 72 h. Format: functional, cell-based.
Data set [5] concerns TC-32. The data set can be described thus: Antiproliferative activity against human TC-32 cells assessed as reduction in cell proliferation incubated for 72 hrs by WST-1 assay. In kind it is functional, cell-based. To be noted: TC-32, 72 h.
In data set [6] the test system is MDA-MB-231. The data set can be described thus: Antiproliferative activity against human MDA-MB-231 cells assessed as reduction in cell proliferation incubated for 72 hrs by WST-1 assay. To be noted: MDA-MB-231, 72 h. In kind it is functional, cell-based.
The test system of data set [7] is LoVo. The data set can be described thus: Antiproliferative activity against human LoVo cells assessed as reduction in cell viability incubated for 48 hrs by MTT assay. Format: functional, cell-based.
In data set [8] the test system is LoVo. The data set can be described thus: Cytotoxicity against human LoVo cells assessed as reduction in cell viability incubated for 72 hrs by MTT assay. Format: functional.
A short description of data set [9]: Antiproliferative activity against human Lovo/DX cells assessed as reduction in cell viability. Format: functional, cell-based.
Data set [10] in a line: Cytotoxicity against human Lovo/DX cells assessed as reduction in cell viability incubated for 72 hrs by MTT assay. Format: functional.
The next data set deals with BXPC-3. The data set is described as follows: Cytotoxicity against human BXPC-3 cells assessed as reduction in cell viability incubated for 72 hrs by MTT assay. In kind it is functional, cell-based. To be noted: BXPC-3, 72 h.
The subject of data set [11] is ASPC1. The data set can be described thus: Cytotoxicity against human ASPC1 cells assessed as reduction in cell viability incubated for 24 hrs by MTT assay. Format: functional, cell-based. The following applies: ASPC1, 24 h.
For the next data set, the system named is PANC-1. The data set is described as follows: Cytotoxicity against human PANC-1 cells assessed as cell growth inhibition incubated for 48 hrs by WST-1 assay. Format: functional, cell-based. To be noted: PANC-1, 48 h.
In data set [12] the test system is SW1990. The data set can be described thus: Cytotoxicity against human SW1990 cells measured after 8 days. In kind it is functional, cell-based. The following applies: SW1990, 192 h.
The test system of another data set is MRC5. The data set can be described thus: Cytotoxicity against human MRC5 cells assessed as reduction in cell growth incubated for 48 hrs by CCK8 assay. In kind it is functional, cell-based. The following applies: MRC5, 48 h.
Data set [13] relates to SNB-19. The data set is described as follows: Anticancer activity against human SNB-19 cells assessed as reduction in cell growth incubated for 48 hrs by SRB assay. To be noted: SNB-19, 48 h. Format: functional, cell-based. In general terms: In SRB staining, fixed cells bind dye roughly in proportion to their protein.
The test system of data set [14] is TC-32. The data set can be described thus: Anticancer activity against human TC-32 cells assessed as reduction in cell growth incubated for 48 hrs by SRB assay. In kind it is functional, cell-based. The following applies: TC-32, 48 h.
The subject of data set [15] is MDA-MB-231. The data set is described as follows: Anticancer activity against human MDA-MB-231 cells assessed as reduction in cell viability measured after 72 hrs by MTT assay. Format: functional, cell-based. To be noted: MDA-MB-231, 72 h.
The subject of the next data set is THP-1. The data set is described as follows: Antiproliferative activity against human THP-1 cells assessed as cell growth inhibition measured after 24 hrs by MTT assay. Format: functional, cell-based. To be noted: THP-1, 24 h.
For another data set, the system named is HL-60. The data set is described as follows: Antiproliferative activity against human HL-60 cells assessed as cell growth inhibition measured after 24 hrs by MTT assay. In kind it is functional, cell-based. To be noted: HL-60, 24 h.
The nature of data set [16]: Antiproliferative activity against human PBMC cells assessed as reduction in cell viability measured after 24 hrs by MTT assay. Format: functional, cell-based.
The subject of data set [17] is MCF7. The data set is described as follows: Antitumor activity against human MCF7 cells assessed as inhibition of cell growth at 1000 ug measured after 48 hrs by spectrophotometric analysis relative to control. Format: functional. Also noted: scale not given: the % may be the effect or the level left. The following applies: dose 1000 µg.
Data set [18] concerns MCF7. The data set can be described thus: Antitumor activity against human MCF7 cells assessed as increase in LDH level at 1000 ug relative to control. In kind it is functional. The following applies: dose 1000 µg.
Data set [19] has as its system CT26. The data set can be described thus: Antitumor activity against mouse CT26 cells assessed as reduction in cell viability incubated for 4 hrs by MTT assay. In kind it is functional, cell-based. To be noted: CT26, 4 h.
Data set [20] relates to CT26. The data set is described as follows: Antitumor activity against mouse CT26 cells assessed as tumor growth inhibition incubated for 4 hrs by MTT assay relative to control. Format: functional. Also on record: scale not given: the % may be the effect or the level left.
For data set [21], the system named is SW1990. The data set can be described thus: Antiproliferative activity against human SW1990 cells assessed as reduction in cell viability. Format: functional, cell-based.
Data set [22] has as its system ASPC1. The data set is described as follows: Antiproliferative activity against human AsPC1 cells assessed as inhibition of cell proliferation incubated for 6 days by CCK8 assay. In kind it is functional, cell-based. To be noted: ASPC1, 144 h.
The test system of another data set is CWR22R. The data set can be described thus: Antiproliferative activity against human 22Rv1 cells assessed as cell viability incubated for 96 hrs by Cell-Titer Glo assay. The following applies: 22Rv1, 96 h. In kind it is functional, cell-based.
For a further data set, the system named is RAW264.7. The data set is described as follows: Cytotoxicity against mouse RAW264.7 cells assessed as reduction in cell viability incubated for 72 hrs. In kind it is functional, cell-based. To be noted: RAW264.7, 72 h.
A further data set relates to HepG2. The data set is described as follows: Cytotoxicity against human HepG2 cells assessed as reduction in cell viability incubated for 48 hrs by MTT assay. To be noted: HepG2, 48 h. In kind it is functional, cell-based.
The test system of data set [23] is MCF7. The data set can be described thus: Cytotoxicity against human MCF7 cells assessed as cell growth inhibition measured after 48 hrs by MTT assay. Format: functional, cell-based. The following applies: MCF7, 48 h.
Another data set has as its system HSC-2. The data set can be described thus: Cytotoxicity against human HSC-2 cells assessed as reduction in cell viability measured after 48 hrs by MTT assay. Format: functional.
The next data set concerns HSC-3. The data set can be described thus: Cytotoxicity against human HSC-3 cells assessed as reduction in cell viability incubated for 48 hrs by MTT assay. In kind it is functional.
Another data set relates to HSC-4. The data set can be described thus: Cytotoxicity against human HSC-4 cells assessed as reduction in cell viability incubated for 48 hrs by MTT assay. In kind it is functional.

As a reminder, the IC50 is the concentration at which inhibition is half-maximal. As to `CCN1c2ccc(-c3ccccc3)cc2Sc2cc(-c3nnc4ccccn34)ccc21`, the IC50 in the data set with MCF7 [1] turned out to be 6.2 µM; in the data set with MDA-MB-231 [2], 19.4 µM; with MDA-MB-468, 9.7 µM; in the data set with SK-BR-3, 31.5 µM; in the data set on T47D, 11.7 µM. Moreover, in [3], the IC50 at 72 h was determined as 13.4 µM.

Turning to `CCN(CC)CCN1c2ncccc2Sc2cccnc21`, the results for the IC50 in the data set with SNB-19 [4], in the data set with TC-32 [5] and with MDA-MB-231 [6] were 0.33 µM, 14.4 µM and 2.13 µM, respectively.

The term IC20 denotes the concentration needed for an effect of 20%. For `OCCOCCN1CCN(CC(O)CN2c3ccccc3Sc3ccc(C(F)(F)F)cc32)CC1` (configuration not stated), the IC50 in the data set on LoVo [7] amounted to 50 µM; in [9] it was 20 µM. Also, the IC20 in the data set on LoVo [8] stood at 6 µM; in data set [10], 4 µM.

Take `CN(CCO)CC(O)CN1c2ccccc2Sc2ccc(C(F)(F)F)cc21` (configuration not stated): the results for the concentration for half-maximal inhibition (IC50) (in the data set with LoVo [7]; in [9]) were 50 µM and 42 µM, respectively. Further, the IC20 with LoVo [8] amounted to 12 µM; in data set [10], 8 µM.

For the compound `CC1=C(C(=O)Nc2ccc(Cl)c(Cl)c2)C(c2ccc3c(c2)Sc2ccccc2N3)C(C(=O)Nc2ccc(Cl)c(Cl)c2)=C(C)N1`, the IC50 in the data set on BXPC-3 was determined as 6.31 µM; with ASPC1 [11], 6.31 µM; in the data set with PANC-1, 6.31 µM; in the data set with SW1990 [12], 6.31 µM; in the data set with MRC5, 70.5 µM.

For `C(#CCN1c2ccncc2Sc2ncccc21)CN1CCN(c2ccccc2)CC1`, the IC50 with SNB-19 [13] worked out at 0.45 µM; in the data set on TC-32 [14], 4.57 µM; in the data set on MDA-MB-231 [15], 0.74 µM.

As for `CCCCCCCCCCc1nc2cc3c(cc2s1)N(C)c1ccccc1S3`, the figures for the half-inhibitory concentration (IC50) (in the data set with THP-1; in the data set on HL-60; in [16]) were 21.6 µM, 67.3 µM and above 2000 µM, respectively.

With `CN1c2ccccc2Sc2cc(/C=C/C(=O)c3ccccc3)ccc21`, the Activity in the data set with MCF7 [17] is 21%; in the data set on MCF7 [18], 64%.

Take `CC(=O)c1ccc(N2CCN(CC(O)CN3c4ccccc4Sc4ccc(C(F)(F)F)cc43)CC2)cc1` (configuration not stated): the IC50 (with LoVo [7]; in data set [9]) was 100 µM throughout. The 20% effect concentration (IC20) in the data set with LoVo [8] is 3 µM; in [10], 4 µM.

On to `COCCOCCOCCOCCOCCOCCOCCOCCOCCOCCOCCOCCN1c2ccccc2Sc2ccccc21`, for which the IC50 with CT26 [19] was found to be 344 µM. Further, the Activity in the data set with CT26 [20] came out at 92%.

For the compound `CCN1c2ccccc2Sc2cc(C3NC(=O)NC(C)=C3C(=O)Nc3ccccc3)ccc21` (configuration not stated), the IC50 is 83.7 µM in the data set with MRC5, 22.8 µM with SW1990 [21] and 15.7 µM with ASPC1 [22].

For `O=C(Nc1ccc(OCCCN2CCNCC2)cc1)N1c2ccccc2Sc2ccccc21`, the concentration for half-maximal inhibition (IC50) with CWR22R is 13.5 µM; with RAW264.7 it was 60.1 µM.

As to `CCCCCCCCCCCCN1c2ccccc2Sc2ccc(C(=O)/C=C/c3ccc(Cl)cc3)cc21`, the values for the 50% inhibitory concentration (IC50) in the data set with HepG2 and in the data set with MCF7 [23] were 7.14 µM and 13.8 µM, respectively.

What is called CC50 is the concentration that lowers cell viability or growth by half. Regarding `COc1cc(OC)c(OC)cc1/C=C/C(=O)c1ccc2c(c1)Nc1ccccc1S2`, the CC50 in the data set with HSC-2 worked out at 4.9 µM; with HSC-3, 311 µM; in the data set with HSC-4, 8 µM.

For the compound `CCCCCCCCCCCCN1c2ccccc2Sc2ccc(C(=O)/C=C/c3cc(OC)c(OC)c(OC)c3)cc21`, the IC50 was 7.6 µM with HepG2 and 12 µM with MCF7 [23].

In the case of `OCCN1CCN(CCCN2c3ccccc3Sc3ccc(C(F)(F)F)cc32)CC1` [FLUPHENAZINE], the IC50 (with LoVo [7]; in data set [9]) was 80 µM in each case. For the same compound, the IC20 (with LoVo [8]; in data set [10]) was 22 µM throughout.
